Like-named read-outs stand apart in the source and are kept apart here.

The subject of data set [1] is young plant organs (leaves and fruits). Conditions: applied, preferably sprayed, together with the thinning formulations.
The subject of data set [2] is "Golden Delicious" apple variety. The following applies: 7 days post-flowering, standard 98 g, cited from earlier work.
The test system of a further data set is apple varieties. The data set is described as follows: Plant tolerance by visual scoring in thinning experiments. In kind it is in vivo. Conditions: application rates 500 mg/l and 700 mg/l. On the procedure: According to visual scoring, formulations comprising […] metamitron show no or only minimal damage when used in thinning experiments on a wide range of apple varieties, while formulations comprising 700 mg/l metamitron cause minimal to clearly discernable damage under identical conditions.

A further data set concerns plants. Conditions: use for fruit thinning, J. Amer. Soc. Hort. Sci. 115(1): 14-19 (1990); cited from earlier work.

As for `O=C[O-].O=C[O-].[Ca+2]` [calcium formate], the plant intolerance symptoms result in data set [1] was “plant intolerance symptoms were not observed”.
For `Cc1nnc(-c2ccccc2)c(=O)n1N` [metamitron], the figures for the fruit weight in data set [2] (application rate 500 mg/l) and in data set [2] (application rate 700 mg/l) were 150 g and 180 g, respectively. Moreover, in the data set with apple varieties, the “plant damage at the application rates of Guzewski” value is “plant damage (foliar necroses) can be observed”.
Take `CSc1nnc(C(C)(C)C)c(=O)n1N` [metribuzin]: in the data set on plants, the plant tolerance result is reported as “unsatisfactory”.

The values above are taken from patent publication US20140373438A1, “Method for Thinning Fruit” (BAYER CROPSCIENCE AG, priority 2001, published 2014).
